Measurements from ChEMBL document CHEMBL1201862, “PubChem BioAssay data set” (2004).
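Briefly, cells in 96-well plates were exposed to five compound concentrations for 48 h, and endpoints were estimated by linear interpolation. GI50: concentration for 50% inhibition of growth.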 Activity calls are given as the source filed them. Cut-off read from the data, not from the text of the source: active = GI50 up to about 1.1 µM and inactive = higher.

What was measured:
Assay in all cases: growth of human tumour cells (NCI), 48 h
HCC 2998 = system: HCC 2998
HL-60 = system: HL-60
HOP-92 = system: HOP-92
HOP-62 = system: HOP-62
COLO 205 = system: COLO 205
OVCAR-5 = system: OVCAR-5
BT-549 = system: BT-549
SW-620 = system: SW-620
K562 = system: K562
PC-3 = system: PC-3
SF-295 = system: SF-295
OVCAR-8 = system: OVCAR-8
NCI/ADR-RES = system: NCI/ADR-RES
SN12C = system: SN12C
ACHN = system: ACHN
CAKI-1 = system: CAKI-1
SK-OV-3 = system: SK-OV-3
SF-268 = system: SF-268
HCT-116 = system: HCT-116
SK-MEL-2 = system: SK-MEL-2
UO-31 = system: UO-31
DU-145 = system: DU-145
A549 = system: A549
M14 = system: M14
RPMI-8226 = system: RPMI-8226
OVCAR-4 = system: OVCAR-4
TK-10 = system: TK-10
MDA-MB-435 = system: MDA-MB-435
MDA-MB-231 = system: MDA-MB-231
UACC-257 = system: UACC-257
EKVX = system: EKVX
HCT-15 = system: HCT-15
CCRF-CEM = system: CCRF-CEM
MCF7 = system: MCF7
SK-MEL-28 = system: SK-MEL-28
NCI-H522 = system: NCI-H522
MOLT-4 = system: MOLT-4
NCI-H460 = system: NCI-H460
HT-29 = system: HT-29
SK-MEL-5 = system: SK-MEL-5
IGROV-1 = system: IGROV-1
U-251 = system: U-251
786-0 = system: 786-0
T47D = system: T47D
MDA-N = system: MDA-N
SNB-19 = system: SNB-19
SF-539 = system: SF-539
KM12 = system: KM12
OVCAR-3 = system: OVCAR-3
Hs-578T = system: Hs-578T
NCI-H23 = system: NCI-H23
UACC-62 = system: UACC-62
LOX IMVI = system: LOX IMVI
RXF 393 = system: RXF 393
SR = system: SR
NCI-H226 = system: NCI-H226
Malme-3M = system: Malme-3M
SNB-75 = system: SNB-75

`Cc1ccc(NC(=O)C(=O)CC(=O)c2sc(Nc3c(C)cccc3C)nc2C)cc1C` was tested, and the GI50 (HCC 2998) was > 100 µM (inactive), the GI50 (HL-60) was 55.2 µM (inactive) and the GI50 (HOP-92) was > 100 µM (inactive). For the same molecule, the GI50 (HOP-62) was > 100 µM (inactive), the GI50 (COLO 205) was > 100 µM (inactive) and the GI50 (OVCAR-5) was > 100 µM (inactive). For the same molecule, the GI50 (BT-549) was > 100 µM (inactive), the GI50 (SW-620) was > 100 µM (inactive) and the GI50 (K562) was > 100 µM (inactive). The GI50 (PC-3) was > 100 µM (inactive), the GI50 (SF-295) was > 100 µM (inactive) and the GI50 (OVCAR-8) was > 100 µM (inactive). For the same molecule, the GI50 (NCI/ADR-RES) was > 100 µM (inactive), the GI50 (SN12C) was > 100 µM (inactive) and the GI50 (ACHN) was > 100 µM (inactive). For the same molecule, the GI50 (CAKI-1) was > 100 µM (inactive), the GI50 (SK-OV-3) was > 100 µM (inactive) and the GI50 (SF-268) was > 100 µM (inactive). The GI50 (HCT-116) was > 100 µM (inactive), the GI50 (SK-MEL-2) was > 100 µM (inactive) and the GI50 (UO-31) was 81.8 µM (inactive). The GI50 (DU-145) was > 100 µM (inactive), the GI50 (A549) was > 100 µM (inactive) and the GI50 (M14) was > 100 µM (inactive). For the same molecule, the GI50 (RPMI-8226) was > 100 µM (inactive), the GI50 (OVCAR-4) was > 100 µM (inactive) and the GI50 (TK-10) was > 100 µM (inactive). The GI50 (MDA-MB-435) was > 100 µM (inactive), the GI50 (MDA-MB-231) was > 100 µM (inactive) and the GI50 (UACC-257) was > 100 µM (inactive). For the same molecule, the GI50 (EKVX) was > 100 µM (inactive), the GI50 (HCT-15) was over 100 µM and the GI50 (CCRF-CEM) was > 100 µM (inactive). For the same molecule, the GI50 (MCF7) was > 100 µM (inactive), the GI50 (SK-MEL-28) was > 100 µM (inactive) and the GI50 (NCI-H522) was 71.4 µM (inactive). The GI50 (MOLT-4) was > 100 µM (inactive), the GI50 (NCI-H460) was > 100 µM (inactive) and the GI50 (HT-29) was > 100 µM (inactive). The GI50 (SK-MEL-5) was > 100 µM (inactive), the GI50 (IGROV-1) was > 100 µM (inactive) and the GI50 (U-251) was > 100 µM (inactive). The GI50 (786-0) was > 100 µM (inactive), the GI50 (T47D) was > 100 µM (inactive) and the GI50 (MDA-N) was > 100 µM (inactive). For the same molecule, the GI50 (SNB-19) was > 100 µM (inactive), the GI50 (SF-539) was > 100 µM (inactive) and the GI50 (KM12) was > 100 µM (inactive). For the same molecule, the GI50 (OVCAR-3) was > 100 µM (inactive), the GI50 (Hs-578T) was > 100 µM (inactive) and the GI50 (NCI-H23) was > 100 µM (inactive). For the same molecule, the GI50 (UACC-62) was > 100 µM (inactive), the GI50 (LOX IMVI) was > 100 µM (inactive) and the GI50 (RXF 393) was > 100 µM (inactive). For the same molecule, the GI50 (SR) was 37.3 µM (inactive) and the GI50 (NCI-H226) was > 100 µM (inactive).
With `Cn1cc(NC(=O)Nc2cc(C(=O)Nc3cc(C(=O)Nc4ccc(S(=O)(=O)O)c5cc(S(=O)(=O)O)ccc45)n(C)c3)n(C)c2)cc1C(=O)Nc1cc(C(=O)Nc2ccc(S(=O)(=O)O)c3cc(S(=O)(=O)O)ccc23)n(C)c1` the GI50 (HCC 2998) was > 100 µM (inactive), the GI50 (HL-60) was > 100 µM (inactive) and the GI50 (HOP-92) was 51.9 µM (inactive). The GI50 (HOP-62) was > 100 µM (inactive), the GI50 (COLO 205) was > 100 µM (inactive) and the GI50 (OVCAR-5) was > 100 µM (inactive). The GI50 (BT-549) was > 100 µM (inactive), the GI50 (Malme-3M) was > 100 µM (inactive) and the GI50 (SW-620) was > 100 µM (inactive). The GI50 (K562) was > 100 µM (inactive), the GI50 (PC-3) was > 100 µM (inactive) and the GI50 (SF-295) was > 100 µM (inactive). For the same molecule, the GI50 (OVCAR-8) was > 100 µM (inactive), the GI50 (NCI/ADR-RES) was > 100 µM (inactive) and the GI50 (SN12C) was > 100 µM (inactive). For the same molecule, the GI50 (ACHN) was > 100 µM (inactive), the GI50 (SK-OV-3) was > 100 µM (inactive) and the GI50 (SF-268) was > 100 µM (inactive). The GI50 (HCT-116) was > 100 µM (inactive), the GI50 (UO-31) was > 100 µM (inactive) and the GI50 (DU-145) was > 100 µM (inactive). The GI50 (A549) was 85.7 µM (inactive), the GI50 (SNB-75) was > 100 µM (inactive) and the GI50 (M14) was > 100 µM (inactive). For the same molecule, the GI50 (RPMI-8226) was > 100 µM (inactive), the GI50 (OVCAR-4) was > 100 µM (inactive) and the GI50 (TK-10) was 83.8 µM (inactive). The GI50 (MDA-MB-435) was > 100 µM (inactive), the GI50 (MDA-MB-231) was > 100 µM (inactive) and the GI50 (UACC-257) was > 100 µM (inactive). The GI50 (EKVX) was 34 µM (inactive), the GI50 (HCT-15) was over 100 µM and the GI50 (CCRF-CEM) was > 100 µM (inactive). For the same molecule, the GI50 (MCF7) was > 100 µM (inactive), the GI50 (SK-MEL-28) was > 100 µM (inactive) and the GI50 (NCI-H522) was > 100 µM (inactive). The GI50 (MOLT-4) was > 100 µM (inactive), the GI50 (NCI-H460) was > 100 µM (inactive) and the GI50 (HT-29) was > 100 µM (inactive). The GI50 (SK-MEL-5) was > 100 µM (inactive), the GI50 (IGROV-1) was > 100 µM (inactive) and the GI50 (U-251) was > 100 µM (inactive). For the same molecule, the GI50 (786-0) was > 100 µM (inactive), the GI50 (T47D) was > 100 µM (inactive) and the GI50 (MDA-N) was > 100 µM (inactive). The GI50 (SNB-19) was > 100 µM (inactive), the GI50 (SF-539) was > 100 µM (inactive) and the GI50 (KM12) was > 100 µM (inactive). For the same molecule, the GI50 (OVCAR-3) was > 100 µM (inactive), the GI50 (Hs-578T) was > 100 µM (inactive) and the GI50 (NCI-H23) was > 100 µM (inactive). The GI50 (UACC-62) was > 100 µM (inactive), the GI50 (RXF 393) was > 100 µM (inactive) and the GI50 (SR) was > 100 µM (inactive). The GI50 (NCI-H226) was > 100 µM (inactive).
With `O=C(CN1CCCC1)Nc1ccc2sc3ccccc3c(=O)c2n1` the GI50 (HCC 2998) was 13.9 µM (inactive), the GI50 (HL-60) was > 10 µM (inactive) and the GI50 (HOP-92) was 27.3 µM (inactive). For the same molecule, the GI50 (HOP-62) was 16.9 µM (inactive), the GI50 (COLO 205) was 14 µM (inactive) and the GI50 (OVCAR-5) was 24.4 µM (inactive). The GI50 (BT-549) was 25.3 µM (inactive), the GI50 (SW-620) was 4.97 µM (inactive) and the GI50 (K562) was 6.82 µM (inactive). For the same molecule, the GI50 (PC-3) was 14.7 µM (inactive), the GI50 (SF-295) was 22.6 µM (inactive) and the GI50 (OVCAR-8) was 16.8 µM (inactive). The GI50 (NCI/ADR-RES) was 15.5 µM (inactive), the GI50 (SN12C) was 16.4 µM (inactive) and the GI50 (ACHN) was 12.5 µM (inactive). For the same molecule, the GI50 (CAKI-1) was 18 µM (inactive), the GI50 (SK-OV-3) was 20.7 µM (inactive) and the GI50 (SF-268) was 24.7 µM (inactive). The GI50 (HCT-116) was 13.9 µM (inactive), the GI50 (SK-MEL-2) was 21.1 µM (inactive) and the GI50 (UO-31) was 14.2 µM (inactive). For the same molecule, the GI50 (DU-145) was 25.9 µM (inactive), the GI50 (A549) was 16.6 µM (inactive) and the GI50 (SNB-75) was 19.7 µM (inactive). The GI50 (M14) was 24 µM (inactive), the GI50 (RPMI-8226) was 21.3 µM (inactive) and the GI50 (OVCAR-4) was 34.6 µM (inactive). The GI50 (TK-10) was 33 µM (inactive), the GI50 (MDA-MB-435) was 14.7 µM (inactive) and the GI50 (MDA-MB-231) was 26.4 µM (inactive). The GI50 (UACC-257) was > 10 µM (inactive), the GI50 (EKVX) was 32.7 µM (inactive) and the GI50 (HCT-15) was 23.2 µM. The GI50 (CCRF-CEM) was 10.5 µM (inactive), the GI50 (MCF7) was 27.2 µM (inactive) and the GI50 (SK-MEL-28) was 19.3 µM (inactive). For the same molecule, the GI50 (NCI-H522) was 11.2 µM (inactive), the GI50 (MOLT-4) was 1.91 µM (inactive) and the GI50 (NCI-H460) was 22 µM (inactive). For the same molecule, the GI50 (HT-29) was 34 µM (inactive), the GI50 (SK-MEL-5) was 16.5 µM (inactive) and the GI50 (IGROV-1) was 23.2 µM (inactive). The GI50 (U-251) was 18.7 µM (inactive), the GI50 (786-0) was 14.9 µM (inactive) and the GI50 (T47D) was 30.1 µM (inactive). For the same molecule, the GI50 (MDA-N) was 20.8 µM (inactive), the GI50 (SNB-19) was 32.7 µM (inactive) and the GI50 (SF-539) was 17.1 µM (inactive). For the same molecule, the GI50 (KM12) was 19.5 µM (inactive), the GI50 (OVCAR-3) was 42.9 µM (inactive) and the GI50 (Hs-578T) was 21.2 µM (inactive). For the same molecule, the GI50 (NCI-H23) was 24.2 µM (inactive), the GI50 (UACC-62) was 19.9 µM (inactive) and the GI50 (LOX IMVI) was 11 µM (inactive). For the same molecule, the GI50 (SR) was 24.9 µM (inactive).
